What all share (type): cell-based, human
The test system of series [1] is anti-CD19 CAR-expressing T cells. Nature of the series: Rescue treatment of chronically stimulated CAR-T cells: cytokine production (MSD), 3D tumor spheroids. As to conditions: five days 3D co-culture with A549.CD19 and Granta-519 spheroids. Here is the method:
Anti-CD19 CAR-expressing T cells, produced as described in Example 1, were chronically stimulated with plate-bound CAR-specific anti-idiotypic antibody for seven days as described in Example 2, but in the absence of Compound 17 during chronic stimulation. Instead, chronically stimulated CAR T cells were treated with Compound 17 during re-challenge with CD19-expressing tumor cells, after which cytolytic activity and cytokine production were assessed.
(§1) Supernatant was collected at day 5 from the above tumor spheroid cultures with chronically stimulated CAR-expressing T cells. Cytokine production was measured from the supernatant by meso scale discovery (MSD) analysis of the collected cell supernatants. […] Duplicate values for cell compositions manufactured from the two different healthy donors are shown.

For series [2] the test system is unchanged. Nature of the series: T cell viability in acute stimulation assays.
For series [3] the test system is unchanged. Nature of the series: Cytokine production (MSD) in co-culture of CAR-T cells and CD19-expressing tumor cells in presence of compound. As to conditions: 48 hours co-culture with K562.CD19, Granta-519, Raji cells, compound present. The protocol: Supernatant was collected after 48 hours from the above co-cultures of CAR-expressing T cells and CD19-expressing tumor cells in the presence of Compound 17. Cytokine production was measured from the supernatant by meso scale discovery (MSD) analysis of the collected cell supernatants.

The test system is the same in series [4]. The series is described as follows: Cytolytic activity of CAR-T cells concurrently treated during chronic stimulation, 3D tumor spheroids. As to conditions: concurrent treatment during chronic stimulation; A549.CD19 and Granta-519 spheroids, day 9. Here is the method: (§2) To simulate conditions of chronic stimulation, approximately 20,000 anti-CD19 CAR-expressing T cells of a combined CAR-T cell composition produced as described in Example 1 from two healthy adult donors were incubated with 30 μg/mL of plate-bound CAR-specific anti-idiotypic antibody (see, e.g., WO2018/023100) at 37° C. for a period of seven days. During this seven-day period, engineered CAR T cells were concurrently treated with Compound 17 (0.1-1000 nM) or a vehicle control added at day 0.
(§3) To further assess activity of chronically stimulated cell, the chronically stimulated CAR-T cells that had been concurrently treated with DGKi were incubated with A549 CD19+ tumor spheroids or Granta-519 tumor spheroids to rechallenge the CAR-T cells at an effector to target ratio of 1:2 for up to 14 days. The tumor spheroids were engineered to express a red fluorescent dye to permit monitoring of tumor cell lysis by microscopy during the assay.
The antigen-specific cytolytic activity of the chronically stimulated CAR-expressing T cells was assessed by monitoring fluorescence (indicative of tumor cell lysis) over time. The tumor volume (normalized to time zero) was measured as the number of red calibrated units (RCU)×μm^2 area. […] Duplicate values for cell compositions manufactured from the two different healthy donors are shown.

The test system is the same in series [5]. The series is described as follows: Cytokine production (MSD) of CAR-T cells concurrently treated during chronic stimulation, 3D tumor spheroids. As to conditions: concurrent treatment during chronic stimulation; five days 3D co-culture with A549.CD19 and Granta-519 spheroids. Here is the method: as §2, §3, §1
For series [6] the test system is unchanged. Nature of the series: Cytolytic function of CAR-T cells co-cultured with CD19-expressing lymphoma cells in presence of compound. As to conditions: co-culture with K562.CD19, Granta-519 and Raji cells, 2.5:1 effector:target, compound present. Here is the method: The cytolytic function of T cells treated with Compound 17 was assessed following co-culture of the combined CAR-T cell composition with various CD19-expressing lymphoma cells at a 2.5:1 effector:target ratio in the presence of Compound 17. The target lymphoma cells were labeled with NucLight Red (NLR) to permit their tracking by microscopy. Cytolytic activity was assessed by measuring the loss of viable target cells over a period of four to seven days, as determined by red fluorescent signal (using the IncuCyte® Live Cell Analysis System, Essen Bioscience).
Triplicate values for cell compositions manufactured from the two different healthy donors are shown.

Series [7] has as its system anti-HPV16 eTCR T cells. The series is described as follows: Rescue treatment of chronically stimulated eTCR T cells: cytolytic function against HPV-expressing CaSki cells. As to conditions: 100 nM compound during co-culture, 2.5:1 effector:target; eTCR cells pre-stimulated with 10 or 20 μg/mL anti-Vbeta. The source says: Primary human CD4+ and CD8+ T cells were isolated from healthy donors by immunoaffinity-based methods. The isolated CD4+ and CD8+ T cells were combined and stimulated with an anti-CD3/anti-CD28 reagent, and then were transduced with a lentiviral vector encoding an anti-human papillomavirus 16 (anti-HPV16) eTCR. The nucleotide sequences encoding the beta chain and the alpha chain of the eTCR were separated by a sequence encoding a 2A ribosome skip element. Following transduction, the cells were cultured in media containing human serum and cytokines for 9-10 days prior to further assessment. To assess the effects of rescue treatment with Compound 17 on cytolytic function, eTCR cells were stimulated for six days using 10 μg/mL or 20 μg/mL plate-bound antibody against the TCR Vbeta chain in the absence of Compound 17. Following chronic stimulation, the eTCR-T cells were co-cultured with HPV-expressing CaSki cells at a 2.5:1 effector:target ratio in the presence of Compound 17 at 100 nM. As a control, chronically stimulated eTCR cells were co-cultured with CaSki cells in the absence of Compound 17. The CaSki cells were transduced with NucLight Red (NLR) and tumor cell number was monitored by Incucyte®.

Series [8] deals with anti-CD19 CAR-expressing T cells. Nature of the series: Activated effector phenotype of CD4+ and CD8+ CAR-expressing cells under acute stimulation.
Series [9] relates to anti-HPV16 eTCR T cells. Nature of the series: Proliferation (cell counts) of chronically stimulated eTCR T cells re-stimulated with anti-Vbeta antibody. As to conditions: re-stimulation 7 days with 20 μg/mL anti-Vbeta, 100 nM compound. An excerpt:
Primary human CD4+ and CD8+ T cells were isolated from healthy donors by immunoaffinity-based methods. The isolated CD4+ and CD8+ T cells were combined and stimulated with an anti-CD3/anti-CD28 reagent, and then were transduced with a lentiviral vector encoding an anti-human papillomavirus 16 (anti-HPV16) eTCR. The nucleotide sequences encoding the beta chain and the alpha chain of the eTCR were separated by a sequence encoding a 2A ribosome skip element. Following transduction, the cells were cultured in media containing human serum and cytokines for 9-10 days prior to further assessment. In another experiment to assess activity of the DGKi to rescue or reverse exhaustion, eTCR T cells were chronically stimulated for 6 days as described above in the absence of Compound 17. […] As a control, chronically stimulated eTCR T cells were re-stimulated in the absence of Compound 17 for 7 days. At the end of the 7 day re-stimulation, cell counts were determined. […] As expected, in the absence of treatment with Compound 17, there was an overall reduction in the ability of chronically stimulated T cells to proliferate compared to fresh eTCR T cells (compare conditions (1) and (3)).

Turning to `CC[C@H]1CN([C@@H](CC)c2ccc(C(F)(F)F)cc2)[C@H](CC)CN1c1nc(=O)n(C)c2ccc(C#N)nc12` [Compound 17, 4-((2S,5R)-2,5-diethyl-4-((S)-1-(4-(trifluoromethyl)phenyl)propyl)piperazin-1-yl)-1-methyl-2-oxo-1,2-dihydropyrido[3,2-d]pyrimidine-6-carbonitrile], the “production of IFNγ, IL-2 and TNFα in supernatant” value in series [1], in [3] and in [5] was “dose-dependent increase in production of all three cytokines” throughout. Further, the T cell viability result in series [2] is on record as “no impact”. In series [4], the “CAR-T cell cytolytic activity (normalized tumor volume)” value is “modestly reduced the cytolytic activity”. Further, the “cytolytic function (percent specific lysis)” value in [6] was “did not affect cytolytic function”. Further, the “cytolytic function of chronically stimulated eTCR cells (CaSki tumor cell number)” value in series [7] is listed as “able to improve cytolytic function”. Also, the “number of CD4+ and CD8+ CAR-expressing cells having an activated effector phenotype” value in series [8] is “increased”. Also, the “proliferation of eTCR T cells (cell counts)” value in [9] is “increased proliferation”.

The record behind these values is patent publication US20240108654A1, “COMBINATION OF A T CELL THERAPY AND A DGK INHIBITOR” (Juno Therapeutics, Inc., priority 2021, published 2024).
